Values of other authors in patent publication US20050169997A1, “Method for preparing resinates” (priority 2002, published 2005).

solubility of indomethacin in water: 14 ppm
SMILES: COc1ccc2c(c1)c(CC(=O)O)c(C)n2C(=O)c1ccc(Cl)cc1 [indomethacin]
